Source: ChEMBL document CHEMBL1909046, “DrugMatrix in vitro pharmacology data”

Key:
[1] = DRUGMATRIX: ATPase, Na+/K+ enzyme inhibition (substrate: ATP); assay type: tissue-based, Sus scrofa, Heart; conditions: Not Active = under 50% inhibition at 10 µM
[2] = biological target: Voltage-gated inwardly rectifying potassium channel KCNH2 (Homo sapiens, UniProt Q12809); conditions: hek293; further: in other assays of this panel Not Active means under 50% inhibition at 10 µM
[3] = biological target: Receptor tyrosine-protein kinase erbB-2 (Homo sapiens, UniProt P04626); assay: biochemical; assay type: cell-based, Insect cells; conditions: insect cells;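 further: inhibition of HER2 kinase enzyme activity, measured with Poly(Glu:Tyr) as the phosphorylation substrate; in other assays of this panel Not Active means under 50% inhibition at 10 µM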
Chain of Receptor tyrosine-protein kinase erbB-2 (P04626 whole entry): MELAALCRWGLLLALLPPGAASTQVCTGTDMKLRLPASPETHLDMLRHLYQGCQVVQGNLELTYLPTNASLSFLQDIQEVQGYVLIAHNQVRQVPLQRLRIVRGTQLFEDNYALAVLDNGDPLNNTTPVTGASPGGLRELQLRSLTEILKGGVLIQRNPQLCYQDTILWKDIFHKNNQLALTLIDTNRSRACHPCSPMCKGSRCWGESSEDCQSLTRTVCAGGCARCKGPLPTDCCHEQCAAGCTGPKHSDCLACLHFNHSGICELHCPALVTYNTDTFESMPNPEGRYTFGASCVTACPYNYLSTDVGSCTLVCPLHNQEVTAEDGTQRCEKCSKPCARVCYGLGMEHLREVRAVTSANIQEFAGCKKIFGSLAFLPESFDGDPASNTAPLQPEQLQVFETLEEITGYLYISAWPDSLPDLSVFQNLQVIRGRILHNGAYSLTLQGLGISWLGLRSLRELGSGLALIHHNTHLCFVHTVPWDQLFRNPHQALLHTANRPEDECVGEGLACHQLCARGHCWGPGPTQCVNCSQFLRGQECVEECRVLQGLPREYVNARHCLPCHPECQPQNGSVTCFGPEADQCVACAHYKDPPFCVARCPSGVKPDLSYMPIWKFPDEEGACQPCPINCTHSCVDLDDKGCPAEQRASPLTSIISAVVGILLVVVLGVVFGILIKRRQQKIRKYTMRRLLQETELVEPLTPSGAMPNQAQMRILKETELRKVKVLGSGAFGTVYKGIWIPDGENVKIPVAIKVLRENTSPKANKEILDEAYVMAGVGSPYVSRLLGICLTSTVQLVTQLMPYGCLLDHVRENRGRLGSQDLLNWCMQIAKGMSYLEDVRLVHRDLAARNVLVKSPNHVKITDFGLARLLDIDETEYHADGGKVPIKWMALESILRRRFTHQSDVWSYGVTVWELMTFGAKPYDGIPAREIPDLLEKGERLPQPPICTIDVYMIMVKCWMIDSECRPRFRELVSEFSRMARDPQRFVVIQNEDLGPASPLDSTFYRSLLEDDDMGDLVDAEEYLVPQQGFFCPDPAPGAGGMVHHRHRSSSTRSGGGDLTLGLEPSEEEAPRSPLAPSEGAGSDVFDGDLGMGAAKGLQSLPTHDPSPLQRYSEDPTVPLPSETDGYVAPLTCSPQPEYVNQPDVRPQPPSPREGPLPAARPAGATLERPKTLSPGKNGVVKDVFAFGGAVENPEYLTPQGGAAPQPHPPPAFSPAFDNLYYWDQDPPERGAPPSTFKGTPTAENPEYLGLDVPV

[4] = biological target: T1, Adenosine receptor A3 (Homo sapiens, UniProt P0DMS8); assay type: cell membranes, CHO-K1, Membrane;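 further: radioligand binding assay with AB-MECA serving as the labeled ligand; in other assays of this panel Not Active means under 50% inhibition at 10 µM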
T1 sequence (P0DMS8 whole entry): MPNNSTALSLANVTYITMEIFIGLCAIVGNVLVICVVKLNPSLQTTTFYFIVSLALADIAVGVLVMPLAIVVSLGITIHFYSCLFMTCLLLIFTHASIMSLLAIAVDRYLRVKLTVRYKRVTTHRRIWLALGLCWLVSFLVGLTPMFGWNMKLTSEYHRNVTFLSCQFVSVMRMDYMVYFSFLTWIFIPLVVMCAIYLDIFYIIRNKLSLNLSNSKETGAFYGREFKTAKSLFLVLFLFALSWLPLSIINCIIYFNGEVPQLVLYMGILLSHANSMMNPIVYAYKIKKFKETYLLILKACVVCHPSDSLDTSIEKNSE

[5] = DRUGMATRIX: Glutamate, NMDA, Agonism radioligand binding (ligand: [3H] CGP-39653); assay type: cell membranes, Rattus norvegicus, Wistar, Cerebral cortex, Membrane; conditions: Not Active = under 50% inhibition at 10 µM
[6] = DRUGMATRIX: Platelet-Derived Growth Factor (PDGF) radioligand binding (ligand: [125I] PDGF); assay type: cell-based; conditions: nih3t3; Not Active = under 50% inhibition at 10 µM
[7] = DRUGMATRIX: Phosphodiesterase PDE4 enzyme inhibition (substrate: [3H]cAMP + cAMP); conditions: u-937; Not Active = under 50% inhibition at 10 µM
[8] = DRUGMATRIX: beta-Lactamase enzyme inhibition (substrate: Nitrocefin); parameters: species or system Bacillus cereus; conditions: Not Active = under 50% inhibition at 10 µM
[9] = biological target: T2, Vasoactive intestinal polypeptide receptor 1 (Homo sapiens, UniProt P32241); assay type: cell membranes, Membrane; conditions: ht-29; further: in other assays of this panel Not Active means under 50% inhibition at 10 µM
T2 sequence (P32241 whole entry): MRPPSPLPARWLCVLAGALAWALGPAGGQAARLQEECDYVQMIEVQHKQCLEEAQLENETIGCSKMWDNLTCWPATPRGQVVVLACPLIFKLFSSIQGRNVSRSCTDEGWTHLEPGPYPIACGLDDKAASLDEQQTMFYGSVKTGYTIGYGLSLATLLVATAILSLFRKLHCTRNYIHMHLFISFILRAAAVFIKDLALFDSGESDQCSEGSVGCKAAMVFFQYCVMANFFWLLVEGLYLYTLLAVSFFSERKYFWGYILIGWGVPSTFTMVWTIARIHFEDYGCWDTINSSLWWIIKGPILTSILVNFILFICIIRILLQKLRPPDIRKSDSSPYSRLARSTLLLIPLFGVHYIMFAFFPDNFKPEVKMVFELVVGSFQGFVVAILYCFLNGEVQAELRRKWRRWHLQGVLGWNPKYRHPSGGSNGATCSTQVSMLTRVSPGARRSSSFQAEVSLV

[10] = DRUGMATRIX: Tumor Necrosis Factor (TNF), Non-Selective radioligand binding (ligand: [125I] TNF-alpha); assay type: cell membranes, Membrane; conditions: u-937; Not Active = under 50% inhibition at 10 µM

Chain of Voltage-gated inwardly rectifying potassium channel KCNH2 (Q12809 whole entry): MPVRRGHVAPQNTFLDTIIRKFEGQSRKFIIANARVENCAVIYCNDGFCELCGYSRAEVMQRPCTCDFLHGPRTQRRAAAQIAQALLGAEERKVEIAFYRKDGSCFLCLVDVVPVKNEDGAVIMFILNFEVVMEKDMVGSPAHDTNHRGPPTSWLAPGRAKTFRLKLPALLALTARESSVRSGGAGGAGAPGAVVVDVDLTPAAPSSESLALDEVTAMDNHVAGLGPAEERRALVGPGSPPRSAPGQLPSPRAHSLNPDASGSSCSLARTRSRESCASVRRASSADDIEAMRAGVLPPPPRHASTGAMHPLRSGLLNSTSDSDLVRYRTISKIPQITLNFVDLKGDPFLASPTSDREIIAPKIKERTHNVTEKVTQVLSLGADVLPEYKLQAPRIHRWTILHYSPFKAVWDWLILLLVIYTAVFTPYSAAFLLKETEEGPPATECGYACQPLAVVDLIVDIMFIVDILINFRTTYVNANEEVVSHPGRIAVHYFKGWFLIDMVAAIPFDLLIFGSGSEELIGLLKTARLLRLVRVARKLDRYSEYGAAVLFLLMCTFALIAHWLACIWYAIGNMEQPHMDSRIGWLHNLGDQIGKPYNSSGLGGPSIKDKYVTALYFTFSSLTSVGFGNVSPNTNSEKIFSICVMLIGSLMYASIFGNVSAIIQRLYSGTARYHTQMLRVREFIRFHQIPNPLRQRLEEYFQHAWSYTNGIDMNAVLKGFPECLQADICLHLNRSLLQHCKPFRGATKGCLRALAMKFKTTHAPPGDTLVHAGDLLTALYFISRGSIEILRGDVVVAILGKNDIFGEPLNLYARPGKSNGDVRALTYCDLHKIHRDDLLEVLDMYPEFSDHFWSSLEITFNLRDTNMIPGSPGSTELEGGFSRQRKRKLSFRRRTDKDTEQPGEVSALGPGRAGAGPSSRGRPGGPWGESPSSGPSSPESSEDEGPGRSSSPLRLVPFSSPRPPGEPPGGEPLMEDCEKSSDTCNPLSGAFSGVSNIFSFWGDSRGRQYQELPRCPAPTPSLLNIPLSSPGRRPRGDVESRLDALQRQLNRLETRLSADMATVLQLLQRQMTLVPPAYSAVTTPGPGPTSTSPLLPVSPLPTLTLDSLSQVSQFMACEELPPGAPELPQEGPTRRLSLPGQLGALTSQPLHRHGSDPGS

| Structure (SMILES) | IC50 [1] | Ki [1] | IC50 [2] | Ki [2] | IC50 [3] | IC50 ([4]; cho-k1) | IC50 [5] | Ki [5] | IC50 [6] | Ki [6] | IC50 [7] | Ki [7] | IC50 [8] | Ki [8] | IC50 [9] | IC50 [10] | Ki [10] | IC50 ([8]; read-out: IC50) [nM] | IC50 ([4]; read-out: IC50) [nM] | Ki ([4]; read-out: Ki) [nM] |
| --- | --- | --- | --- | --- | --- | --- | --- | --- | --- | --- | --- | --- | --- | --- | --- | --- | --- | --- | --- | --- |
| COCCOC(=O)C1=C(C)NC(C)=C(C(=O)OC(C)C)C1c1cccc([N+](=O)[O-])c1 (centres undefined) [NIMODIPINE] | Not Active | Not Active | Not Active | Not Active | Not Active | Not Active | Not Active | Not Active | Not Active | Not Active | Not Active | Not Active | Not Active | Not Active | Not Active | Not Active | Not Active |  |  |  |
| COc1cc(NS(=O)(=O)c2ccc(N)cc2)nc(OC)n1 [SULFADIMETHOXINE] | Not Active | Not Active | Not Active | Not Active | Not Active | Not Active | Not Active | Not Active | Not Active | Not Active | Not Active | Not Active | Not Active | Not Active | Not Active | Not Active | Not Active |  |  |  |
| C[C@]1(Cn2ccnn2)[C@H](C(=O)O)N2C(=O)C[C@H]2S1(=O)=O [TAZOBACTAM] | Not Active | Not Active | Not Active | Not Active | Not Active | Not Active | Not Active | Not Active | Not Active | Not Active | Not Active | Not Active |  |  | Not Active | Not Active | Not Active | 299 |  |  |
| [Cl-].[Cl-].[Zn+2] [ZINC CHLORIDE] | Not Active | Not Active | Not Active | Not Active | Not Active | Not Active | Not Active | Not Active | Not Active | Not Active | Not Active | Not Active | Not Active | Not Active | Not Active | Not Active | Not Active |  |  |  |
| O=C(c1ccc(OCCN2CCCCC2)cc1)c1c(-c2ccc(O)cc2)sc2cc(O)ccc12 [RALOXIFENE] | Not Active | Not Active | Not Active | Not Active | Not Active | Not Active | Not Active | Not Active | Not Active | Not Active | Not Active | Not Active | Not Active | Not Active | Not Active | Not Active | Not Active |  |  |  |
| CN1C(C(=O)Nc2ccccn2)=C(O)c2sccc2S1(=O)=O [TENOXICAM] | Not Active | Not Active | Not Active | Not Active | Not Active | Not Active | Not Active | Not Active | Not Active | Not Active | Not Active | Not Active | Not Active | Not Active | Not Active | Not Active | Not Active |  |  |  |
| CC(=O)N[C@@H]1[C@H](Oc2c3cc4cc2Oc2ccc(cc2Cl)[C@@H](O[C@@H]2O[C@@H](CO)[C@@H](O)[C@H](O)[C@@H]2NC(C)=O)[C@@H]2NC(=O)[C@H](NC(=O)[C@@H]4NC(=O)[C@H]4NC(=O)[C@@H](Cc5ccc(c(Cl)c5)O3)NC(=O)[C@H](N)c3ccc(O)c(c3)Oc3cc(O)cc4c3)c3ccc(O)c(c3)-c3c(O[C@H]4O[C@H](CO)[C@@H](O)[C@@H](O)[C@@H]4O)cc(O)cc3[C@@H](C(=O)O)NC2=O)O[C@@H](CO)[C@@H](O)[C@@H]1O | Not Active | Not Active | Not Active | Not Active | Not Active | Not Active | Not Active | Not Active | Not Active | Not Active | Not Active | Not Active | Not Active | Not Active | Not Active | Not Active | Not Active |  |  |  |
| COCCCOc1ccnc(C[S+]([O-])c2nc3ccccc3[nH]2)c1C (centres undefined) [RABEPRAZOLE] | Not Active | Not Active | Not Active | Not Active | Not Active |  | Not Active | Not Active | Not Active | Not Active | Not Active | Not Active | Not Active | Not Active | Not Active | Not Active | Not Active |  | 3220 | 1820 |
| CO[C@H]1/C=C/O[C@@]2(C)Oc3c(C)c(O)c4c(c3C2=O)C2=NC3(CCN(CC(C)C)CC3)NC2=C(NC(=O)/C(C)=C\C=C\[C@H](C)[C@H](O)[C@@H](C)[C@@H](O)[C@@H](C)[C@H](OC(C)=O)[C@@H]1C)C4=O [RIFABUTIN] | Not Active | Not Active | Not Active | Not Active | Not Active | Not Active | Not Active | Not Active | Not Active | Not Active | Not Active | Not Active | Not Active | Not Active | Not Active | Not Active | Not Active |  |  |  |
| CNC(=C[N+](=O)[O-])NCCSCc1ccc(CN(C)C)o1 [RANITIDINE] | Not Active | Not Active | Not Active | Not Active | Not Active | Not Active | Not Active | Not Active | Not Active | Not Active | Not Active | Not Active | Not Active | Not Active | Not Active | Not Active | Not Active |  |  |  |
| CC1=C(CC(=O)O)c2cc(F)ccc2/C1=C\c1ccc([S+](C)[O-])cc1 (centres undefined) | Not Active | Not Active | Not Active | Not Active | Not Active | Not Active | Not Active | Not Active | Not Active | Not Active | Not Active | Not Active | Not Active | Not Active | Not Active | Not Active | Not Active |  |  |  |
| CC(=O)CC(c1ccccc1)c1c(O)c2ccccc2oc1=O (centres undefined) [WARFARIN] | Not Active | Not Active | Not Active | Not Active | Not Active | Not Active | Not Active | Not Active | Not Active | Not Active | Not Active | Not Active | Not Active | Not Active | Not Active | Not Active | Not Active |  |  |  |
